Measurements published in ChEMBL document CHEMBL5726952, “Compounds” (2019).
pIC50: −log10 of the molar value.

Tests used:
Experiment in all cases: Kinase Screening Assay: Compound IC50 values were determined from 10-point, 1:3 dilution curves starting at either 100 μM or 10 μM with 10 μM ATP, by Reaction Biology Corp. For the whole kinome screen compounds were screened against 340 wild type kinases at a single dose of 1 μM, in duplicate, with 10 μM of ATP by Reaction Biology Corp. The data was averaged and plotted as percentage enzyme …
[1] = target: Tyrosine-protein kinase Blk (Homo sapiens, UniProt P51451)
[2] = target: Mast/stem cell growth factor receptor Kit (Homo sapiens, UniProt P10721)
[3] = target: Proto-oncogene tyrosine-protein kinase receptor Ret (Homo sapiens, UniProt P07949)
[4] = target: Platelet-derived growth factor receptor alpha (Homo sapiens, UniProt P16234)
[5] = target: Tyrosine-protein kinase HCK (Homo sapiens, UniProt P08631)

Measured: pIC50

Sequence of Tyrosine-protein kinase HCK (P08631 whole entry): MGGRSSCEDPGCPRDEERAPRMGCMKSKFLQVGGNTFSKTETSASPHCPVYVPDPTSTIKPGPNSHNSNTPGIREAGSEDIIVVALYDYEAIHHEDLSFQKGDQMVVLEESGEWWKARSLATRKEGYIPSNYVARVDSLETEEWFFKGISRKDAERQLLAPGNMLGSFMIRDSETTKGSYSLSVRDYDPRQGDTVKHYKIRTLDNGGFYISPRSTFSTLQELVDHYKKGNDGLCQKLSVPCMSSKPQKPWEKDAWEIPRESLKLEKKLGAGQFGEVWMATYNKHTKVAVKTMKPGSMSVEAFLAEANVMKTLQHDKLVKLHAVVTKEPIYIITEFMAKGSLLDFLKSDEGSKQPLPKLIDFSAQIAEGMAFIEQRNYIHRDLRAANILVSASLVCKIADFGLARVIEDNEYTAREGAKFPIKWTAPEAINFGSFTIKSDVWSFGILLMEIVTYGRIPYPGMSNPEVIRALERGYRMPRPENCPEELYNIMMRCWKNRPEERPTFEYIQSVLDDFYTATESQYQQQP
Sequence of Tyrosine-protein kinase Blk (P51451 whole entry): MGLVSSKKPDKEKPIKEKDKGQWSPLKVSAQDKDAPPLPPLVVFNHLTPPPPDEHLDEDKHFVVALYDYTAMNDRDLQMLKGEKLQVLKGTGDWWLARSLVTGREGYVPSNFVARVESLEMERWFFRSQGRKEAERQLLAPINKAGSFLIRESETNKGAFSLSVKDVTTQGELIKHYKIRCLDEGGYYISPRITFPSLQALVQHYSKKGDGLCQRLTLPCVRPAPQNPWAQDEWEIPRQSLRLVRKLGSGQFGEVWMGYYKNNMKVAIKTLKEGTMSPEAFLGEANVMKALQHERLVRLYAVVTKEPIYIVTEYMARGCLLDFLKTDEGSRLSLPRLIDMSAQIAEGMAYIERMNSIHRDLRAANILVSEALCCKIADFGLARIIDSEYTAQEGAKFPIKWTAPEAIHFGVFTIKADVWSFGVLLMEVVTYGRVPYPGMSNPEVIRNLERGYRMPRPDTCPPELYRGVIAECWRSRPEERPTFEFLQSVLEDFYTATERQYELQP
Sequence of Proto-oncogene tyrosine-protein kinase receptor Ret (P07949 whole entry): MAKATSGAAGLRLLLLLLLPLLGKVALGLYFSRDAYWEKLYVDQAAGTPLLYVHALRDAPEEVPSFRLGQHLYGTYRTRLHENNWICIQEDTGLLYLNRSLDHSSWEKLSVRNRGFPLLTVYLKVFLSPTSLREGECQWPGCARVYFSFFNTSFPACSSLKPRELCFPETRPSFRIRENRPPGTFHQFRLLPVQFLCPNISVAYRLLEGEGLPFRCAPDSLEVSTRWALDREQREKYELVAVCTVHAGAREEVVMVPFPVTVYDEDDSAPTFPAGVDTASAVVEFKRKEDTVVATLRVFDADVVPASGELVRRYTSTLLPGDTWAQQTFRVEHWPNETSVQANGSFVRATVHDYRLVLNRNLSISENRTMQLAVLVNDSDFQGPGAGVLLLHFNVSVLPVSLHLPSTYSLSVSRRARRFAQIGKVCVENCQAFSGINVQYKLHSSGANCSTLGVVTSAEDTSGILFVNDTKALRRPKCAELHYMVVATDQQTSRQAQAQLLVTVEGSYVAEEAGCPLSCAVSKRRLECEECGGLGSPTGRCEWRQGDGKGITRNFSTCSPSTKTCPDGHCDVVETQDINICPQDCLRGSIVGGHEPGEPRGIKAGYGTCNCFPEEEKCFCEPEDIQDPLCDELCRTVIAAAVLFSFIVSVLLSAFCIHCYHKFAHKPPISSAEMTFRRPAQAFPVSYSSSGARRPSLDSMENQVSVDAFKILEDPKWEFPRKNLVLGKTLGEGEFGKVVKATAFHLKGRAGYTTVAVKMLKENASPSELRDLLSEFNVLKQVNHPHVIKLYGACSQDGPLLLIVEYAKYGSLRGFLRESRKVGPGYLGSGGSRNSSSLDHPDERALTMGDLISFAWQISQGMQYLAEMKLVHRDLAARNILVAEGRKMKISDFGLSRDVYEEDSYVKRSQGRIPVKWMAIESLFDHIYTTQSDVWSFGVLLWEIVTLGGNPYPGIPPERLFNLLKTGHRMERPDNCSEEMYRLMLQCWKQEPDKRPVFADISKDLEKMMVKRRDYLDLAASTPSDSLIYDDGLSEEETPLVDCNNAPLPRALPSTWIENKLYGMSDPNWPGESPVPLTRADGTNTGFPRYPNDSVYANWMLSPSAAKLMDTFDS
Sequence of Platelet-derived growth factor receptor alpha (P16234 whole entry): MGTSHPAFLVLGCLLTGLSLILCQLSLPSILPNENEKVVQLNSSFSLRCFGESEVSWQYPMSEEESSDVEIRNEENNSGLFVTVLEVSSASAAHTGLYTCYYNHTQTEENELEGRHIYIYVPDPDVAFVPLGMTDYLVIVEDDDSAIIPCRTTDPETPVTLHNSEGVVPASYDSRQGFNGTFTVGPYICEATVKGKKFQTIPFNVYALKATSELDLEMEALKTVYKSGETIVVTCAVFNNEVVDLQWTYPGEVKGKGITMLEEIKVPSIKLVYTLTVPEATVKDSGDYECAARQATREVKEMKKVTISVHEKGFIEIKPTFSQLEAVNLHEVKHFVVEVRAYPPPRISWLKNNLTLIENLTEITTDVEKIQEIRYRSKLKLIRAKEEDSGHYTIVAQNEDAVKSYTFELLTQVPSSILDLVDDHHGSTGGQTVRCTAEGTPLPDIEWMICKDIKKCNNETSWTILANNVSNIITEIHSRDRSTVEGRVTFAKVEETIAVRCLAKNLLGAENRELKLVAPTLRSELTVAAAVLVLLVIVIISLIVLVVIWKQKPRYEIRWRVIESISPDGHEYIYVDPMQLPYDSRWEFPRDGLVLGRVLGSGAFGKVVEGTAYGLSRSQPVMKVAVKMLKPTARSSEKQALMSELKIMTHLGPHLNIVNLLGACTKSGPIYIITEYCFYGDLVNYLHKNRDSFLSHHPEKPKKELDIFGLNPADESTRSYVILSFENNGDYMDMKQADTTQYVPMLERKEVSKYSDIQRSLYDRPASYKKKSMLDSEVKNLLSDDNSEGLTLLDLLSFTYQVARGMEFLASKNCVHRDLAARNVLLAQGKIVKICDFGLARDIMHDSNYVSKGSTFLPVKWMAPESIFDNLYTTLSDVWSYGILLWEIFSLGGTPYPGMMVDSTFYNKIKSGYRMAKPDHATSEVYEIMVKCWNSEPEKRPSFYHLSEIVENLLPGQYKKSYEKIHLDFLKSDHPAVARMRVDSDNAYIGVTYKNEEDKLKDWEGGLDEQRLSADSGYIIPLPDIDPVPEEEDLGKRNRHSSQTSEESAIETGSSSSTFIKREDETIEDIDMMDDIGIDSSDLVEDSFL
Sequence of Mast/stem cell growth factor receptor Kit (P10721 whole entry): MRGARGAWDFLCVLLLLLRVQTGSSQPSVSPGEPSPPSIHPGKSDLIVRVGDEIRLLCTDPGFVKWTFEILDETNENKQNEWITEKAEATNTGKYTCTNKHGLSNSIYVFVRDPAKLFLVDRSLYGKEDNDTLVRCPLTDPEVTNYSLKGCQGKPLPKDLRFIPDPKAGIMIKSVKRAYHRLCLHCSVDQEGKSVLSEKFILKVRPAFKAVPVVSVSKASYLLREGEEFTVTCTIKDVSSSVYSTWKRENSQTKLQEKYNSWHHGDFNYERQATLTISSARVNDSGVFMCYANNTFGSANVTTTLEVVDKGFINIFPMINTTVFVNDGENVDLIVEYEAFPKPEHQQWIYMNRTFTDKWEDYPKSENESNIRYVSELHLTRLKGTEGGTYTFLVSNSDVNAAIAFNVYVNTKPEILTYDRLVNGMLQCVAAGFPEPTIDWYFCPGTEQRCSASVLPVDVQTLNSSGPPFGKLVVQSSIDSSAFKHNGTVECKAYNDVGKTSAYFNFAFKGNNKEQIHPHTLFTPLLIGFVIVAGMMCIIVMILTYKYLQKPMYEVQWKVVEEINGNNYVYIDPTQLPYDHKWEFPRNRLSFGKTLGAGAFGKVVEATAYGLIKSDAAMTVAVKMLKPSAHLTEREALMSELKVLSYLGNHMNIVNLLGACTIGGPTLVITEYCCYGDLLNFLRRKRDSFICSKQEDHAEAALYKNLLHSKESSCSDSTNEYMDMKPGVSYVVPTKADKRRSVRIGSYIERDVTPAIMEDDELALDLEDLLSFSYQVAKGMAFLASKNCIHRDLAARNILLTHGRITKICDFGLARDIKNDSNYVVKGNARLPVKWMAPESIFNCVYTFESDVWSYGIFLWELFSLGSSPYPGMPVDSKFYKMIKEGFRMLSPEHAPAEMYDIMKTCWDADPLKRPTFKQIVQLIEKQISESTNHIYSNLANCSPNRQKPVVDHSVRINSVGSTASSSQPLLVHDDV

Cc1ccc(-c2nn(CCN3CCC(N(C)C)CC3)c3ncnc(N)c23)cc1
< 6.00: all assays above
